From US20230365592A1 (Agios Pharmaceuticals, Inc., priority 2022, published 2023)

Target: T1, human PAH with the R408W mutation (Homo sapiens, UniProt P00439, R408W)
T1 construct: expressed in transfected cells
T1 sequence (P00439 1-452 R408W): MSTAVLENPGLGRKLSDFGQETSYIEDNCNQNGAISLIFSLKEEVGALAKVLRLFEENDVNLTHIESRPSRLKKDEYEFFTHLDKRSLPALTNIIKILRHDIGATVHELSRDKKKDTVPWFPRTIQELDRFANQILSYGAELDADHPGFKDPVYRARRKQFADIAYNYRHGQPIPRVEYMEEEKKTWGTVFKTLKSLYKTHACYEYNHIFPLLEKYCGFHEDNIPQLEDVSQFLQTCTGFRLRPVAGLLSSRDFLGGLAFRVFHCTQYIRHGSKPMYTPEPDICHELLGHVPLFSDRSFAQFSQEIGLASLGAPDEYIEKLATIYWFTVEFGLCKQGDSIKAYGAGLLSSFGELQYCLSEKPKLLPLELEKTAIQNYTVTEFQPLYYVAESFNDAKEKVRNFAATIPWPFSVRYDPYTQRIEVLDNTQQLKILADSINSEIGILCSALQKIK
Assay: Cell Based Phenylalanine Flux Assay;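 note: after compound treatment, cells received sepiapterin plus isotope-labelled Phenylalanine for 4 hours, then labelled Tyrosine in the medium was quantified, 10-point 2-fold dilution series run in duplicate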
Conditions: A375 cells expressing human R408W PAH; 24 hrs compound incubation; 13C-Tyrosine by LC-MS; average where tested multiple times; read-out: AC50

First: COc1cccn2nc([C@H]3c4nc[nH]c4CCN3C(=O)c3nnc(C(C)(C)C)o3)cc12 [Example 1182, (R)-(5-(tert-butyl)-1,3,4-oxadiazol-2-yl)(4-(4-methoxypyrazolo[1,5-a]pyridin-2-yl)-6,7-dihydro-1H-imidazo[4,5-c]pyridin-5(4H)-yl)methanone]
Second: COc1cccn2nc([C@@H]3c4nc[nH]c4CCN3C(=O)c3nnc(C(C)(C)C)o3)cc12 [Example 1183, (S)-(5-(tert-butyl)-1,3,4-oxadiazol-2-yl)(4-(4-methoxypyrazolo[1,5-a]pyridin-2-yl)-6,7-dihydro-1H-imidazo[4,5-c]pyridin-5(4H)-yl)methanone]
The AC50 of the first is higher: 1 to 5 µM for the first, 0.5 to 1 µM for the second.

Compared with `Cc1ccc2cc([C@H]3c4nc[nH]c4CCN3C(=O)c3cnco3)nn2c1` [Example 1186, (R)-(4-(6-methylpyrazolo[1,5-a]pyridin-2-yl)-6,7-dihydro-1H-imidazolo[4,5-c]pyridin-5(4H)-yl)(oxazol-5-yl)methanone], `Cc1ccc2cc([C@@H]3c4nc[nH]c4CCN3C(=O)c3cnco3)nn2c1` [Example 1187, (S)-(4-(6-methylpyrazolo[1,5-a]pyridin-2-yl)-6,7-dihydro-1H-imidazo[4,5-c]pyridin-5(4H)-yl)(oxazol-5-yl)methanone] is higher in AC50: 0.5 to 1 µM for the first, 1 to 5 µM for the second.

First: Cc1c(-c2nnc(C(=O)N3CCc4[nH]cnc4[C@@H]3c3cc4cccc(C)n4n3)o2)cnn1C [Example 1189, (R)-(5-(1,5-dimethyl-1H-pyrazol-4-yl)-1,3,4-oxadiazol-2-yl)(4-(7-methylpyrazolo[1,5-a]pyridin-2-yl)-6,7-dihydro-1H-imidazo[4,5-c]pyridin-5(4H)-yl)methanone]
Second: Cc1c(-c2nnc(C(=O)N3CCc4[nH]cnc4[C@H]3c3cc4cccc(Cl)n4n3)o2)cnn1C [Example 1208, (S)-(4-(7-chloropyrazolo[1,5-a]pyridin-2-yl)-6,7-dihydro-1H-imidazo[4,5-c]pyridin-5(4H)-yl)(5-(1,5-dimethyl-1H-pyrazol-4-yl)-1,3,4-oxadiazol-2-yl)methanone]
The AC50 of the first is higher: 1 to 5 µM for the first, less than 0.5 µM for the second.

Compared with `Cc1c(-c2nnc(C(=O)N3CCc4[nH]cnc4[C@@H]3c3cc4cccc(C(F)(F)F)n4n3)o2)cnn1C` [Example 1191, (R)-(5-(1,5-dimethyl-1H-pyrazol-4-yl)-1,3,4-oxadiazol-2-yl)(4-(7-(trifluoromethyl)pyrazolo[1,5-a]pyridin-2-yl)-6,7-dihydro-1H-imidazo[4,5-c]pyridin-5(4H)-yl)methanone], `Cc1c(-c2nnc(C(=O)N3CCc4[nH]cnc4[C@@H]3c3cc4cccc(Cl)n4n3)o2)cnn1C` [Example 1209, (R)-(4-(7-chloropyrazolo[1,5-a]pyridin-2-yl)-6,7-dihydro-1H-imidazo[4,5-c]pyridin-5(4H)-yl)(5-(1,5-dimethyl-1H-pyrazol-4-yl)-1,3,4-oxadiazol-2-yl)methanone] is higher in AC50: 1 to 5 µM for the first, greater than 5 µM for the second.

Compared with `CC(C)(O)c1nc(C(F)(F)F)c(C(=O)N2CCc3[nH]cnc3[C@H]2c2cc3cccc(Cl)n3n2)o1` [Example 1192, (S)-(4-(7-chloropyrazolo[1,5-a]pyridin-2-yl)-6,7-dihydro-1H-imidazo[4,5-c]pyridin-5(4H)-yl)(2-(2-hydroxypropan-2-yl)-4-(trifluoromethyl)oxazol-5-yl)methanone], `CC(C)(O)c1nc(C(F)(F)F)c(C(=O)N2CCc3[nH]cnc3[C@@H]2c2cc3cccc(Cl)n3n2)o1` [Example 1193, (R)-(4-(7-chloropyrazolo[1,5-a]pyridin-2-yl)-6,7-dihydro-1H-imidazo[4,5-c]pyridin-5(4H)-yl)(2-(2-hydroxypropan-2-yl)-4-(trifluoromethyl)oxazol-5-yl)methanone] is higher in AC50: less than 0.5 µM for the first, 1 to 5 µM for the second.

First: C[C@H](O)c1nc(C(F)F)c(C(=O)N2CCc3[nH]cnc3[C@@H]2c2cc3cccc(Cl)n3n2)o1 [Example 1194, ((R)-4-(7-chloropyrazolo[1,5-a]pyridin-2-yl)-6,7-dihydro-1H-imidazo[4,5-c]pyridin-5(4H)-yl)(4-(difluoromethyl)-2-((S)-1-hydroxyethyl)oxazol-5-yl)methanone]
Second: C[C@H](O)c1nc(C(F)F)c(C(=O)N2CCc3[nH]cnc3[C@H]2c2cc3cccc(Cl)n3n2)o1 [Example 1195, ((S)-4-(7-chloropyrazolo[1,5-a]pyridin-2-yl)-6,7-dihydro-1H-imidazo[4,5-c]pyridin-5(4H)-yl)(4-(difluoromethyl)-2-((S)-1-hydroxyethyl)oxazol-5-yl)methanone]
The AC50 of the first is higher: 1 to 5 µM for the first, 0.5 to 1 µM for the second.

First: C[C@@H](O)c1nc(C(F)F)c(C(=O)N2CCc3[nH]cnc3[C@@H]2c2cc3cccc(Cl)n3n2)o1 [Example 1197, ((R)-4-(7-chloropyrazolo[1,5-a]pyridin-2-yl)-6,7-dihydro-1H-imidazo[4,5-c]pyridin-5(4H)-yl)(4-(difluoromethyl)-2-((R)-1-hydroxyethyl)oxazol-5-yl)methanone]
Second: Cc1nc([C@H](C)O)oc1C(=O)N1CCc2[nH]cnc2[C@H]1c1cc2cccc(Cl)n2n1 [Example 1212, ((S)-4-(7-chloropyrazolo[1,5-a]pyridin-2-yl)-6,7-dihydro-1H-imidazo[4,5-c]pyridin-5(4H)-yl)(2-((S)-1-hydroxyethyl)-4-methyloxazol-5-yl)methanone]
The AC50 of the first is higher: 1 to 5 µM for the first, 0.5 to 1 µM for the second.

`C[C@H](O)c1nc(C(F)F)c(C(=O)N2CCc3[nH]cnc3[C@H]2c2cc3cccc(C(F)(F)F)n3n2)o1` [Example 1200, (4-(difluoromethyl)-2-((S)-1-hydroxyethyl)oxazol-5-yl)((S)-4-(7-(trifluoromethyl)pyrazolo[1,5-a]pyridin-2-yl)-6,7-dihydro-1H-imidazo[4,5-c]pyridin-5(4H)-yl)methanone] and `C[C@H](O)c1nc(C(F)F)c(C(=O)N2CCc3[nH]cnc3[C@@H]2c2cc3cccc(C(F)(F)F)n3n2)o1` [Example 1201, (4-(difluoromethyl)-2-((S)-1-hydroxyethyl)oxazol-5-yl)((R)-4-(7-(trifluoromethyl)pyrazolo[1,5-a]pyridin-2-yl)-6,7-dihydro-1H-imidazo[4,5-c]pyridin-5(4H)-yl)methanone] fall in the same range of AC50: 0.5 to 1 µM for the first, 0.5 to 1 µM for the second.

First: O=C(c1ocnc1C(F)F)N1CCc2[nH]cnc2[C@H]1c1cc2cccc(F)n2n1 [Example 1202, (S)-(4-(difluoromethyl)oxazol-5-yl)(4-(7-fluoropyrazolo[1,5-a]pyridin-2-yl)-6,7-dihydro-1H-imidazo[4,5-c]pyridin-5(4H)-yl)methanone]
Second: O=C(c1ocnc1C(F)F)N1CCc2[nH]cnc2[C@@H]1c1cc2cccc(F)n2n1 [Example 1203, (R)-(4-(difluoromethyl)oxazol-5-yl)(4-(7-fluoropyrazolo[1,5-a]pyridin-2-yl)-6,7-dihydro-1H-imidazo[4,5-c]pyridin-5(4H)-yl)methanone]
The AC50 of the first is lower: less than 0.5 µM for the first, 1 to 5 µM for the second.

Compared with `Cc1c(-c2nnc(C(=O)N3CCc4[nH]cnc4[C@H]3c3cc4c(C(F)(F)F)cccn4n3)o2)cnn1C` [Example 1204, (S)-(5-(1,5-dimethyl-1H-pyrazol-4-yl)-1,3,4-oxadiazol-2-yl)(4-(4-(trifluoromethyl)pyrazolo[1,5-a]pyridin-2-yl)-6,7-dihydro-1H-imidazo[4,5-c]pyridin-5(4H)-yl)methanone], `Cc1c(-c2nnc(C(=O)N3CCc4[nH]cnc4[C@@H]3c3cc4c(C(F)(F)F)cccn4n3)o2)cnn1C` [Example 1205, (R)-(5-(1,5-dimethyl-1H-pyrazol-4-yl)-1,3,4-oxadiazol-2-yl)(4-(4-(trifluoromethyl)pyrazolo[1,5-a]pyridin-2-yl)-6,7-dihydro-1H-imidazo[4,5-c]pyridin-5(4H)-yl)methanone] is higher in AC50: less than 0.5 µM for the first, greater than 5 µM for the second.

First: COc1cccn2nc([C@@H]3c4nc[nH]c4CCN3C(=O)c3nnc(-c4cnn(C)c4C)o3)cc12 [Example 1206, (S)-(5-(1,5-dimethyl-1H-pyrazol-4-yl)-1,3,4-oxadiazol-2-yl)(4-(4-methoxypyrazolo[1,5-a]pyridin-2-yl)-6,7-dihydro-1H-imidazo[4,5-c]pyridin-5(4H)-yl)methanone]
Second: Cc1c(-c2nnc(C(=O)N3CCc4[nH]cnc4[C@@H]3c3cc4c(Cl)cccn4n3)o2)cnn1C [Example 1215, (R)-(4-(4-chloropyrazolo[1,5-a]pyridin-2-yl)-6,7-dihydro-1H-imidazo[4,5-c]pyridin-5(4H)-yl)(5-(1,5-dimethyl-1H-pyrazol-4-yl)-1,3,4-oxadiazol-2-yl)methanone]
The AC50 of the first is lower: 0.5 to 1 µM for the first, greater than 5 µM for the second.

First: Cc1nc(C(C)(C)O)oc1C(=O)N1CCc2[nH]cnc2[C@H]1c1cc2cccc(Cl)n2n1 [Example 1210, (S)-(4-(7-chloropyrazolo[1,5-a]pyridin-2-yl)-6,7-dihydro-1H-imidazo[4,5-c]pyridin-5(4H)-yl)(2-(2-hydroxypropan-2-yl)-4-methyloxazol-5-yl)methanone]
Second: Cc1cccn2nc([C@H]3c4nc[nH]c4CCN3C(=O)c3oc(C(C)(C)F)nc3C(F)F)cc12 [Example 1217, (R)-(4-(difluoromethyl)-2-(2-fluoropropan-2-yl)oxazol-5-yl)(4-(4-methylpyrazolo[1,5-a]pyridin-2-yl)-6,7-dihydro-1H-imidazo[4,5-c]pyridin-5(4H)-yl)methanone]
The AC50 of the first is higher: 0.5 to 1 µM for the first, less than 0.5 µM for the second.

`CC(C)(F)c1nc(C(F)F)c(C(=O)N2CCc3[nH]cnc3[C@@H]2c2cc3c(C(F)(F)F)cccn3n2)o1` [Example 1219, (R)-(4-(difluoromethyl)-2-(2-fluoropropan-2-yl)oxazol-5-yl)(4-(4-(trifluoromethyl)pyrazolo[1,5-a]pyridin-2-yl)-6,7-dihydro-1H-imidazo[4,5-c]pyridin-5(4H)-yl)methanone] gave an AC50 of 0.5 to 1 µM.
